Source: patent publication US20130096170A1 (priority 2011, published 2013)

Tests used:
clinical [1] = conditions: human, plasma, intravenous, full evaluable population
clinical [2] = conditions: human, in vivo
clinical [3] = conditions: human, in vivo; remark: listed apart in the source

What does the source list for `Cc1cccc([C@H](C)c2cnc[nH]2)c1C` [dexmedetomidine]?
Cmax (clinical [1]; Cmax Mean, Dose Level 1, LD 0.25/CD 0.2 μg/kg/hr): 0.48 ng/mL; Cmax (clinical [1]; Cmax Mean, Dose Level 2, LD 0.50/CD 0.4 μg/kg/hr): 0.848 ng/mL; Cmax (clinical [1]; Cmax Mean, Dose Level 3, LD 1.00/CD 0.7 μg/kg/hr): 3.39 ng/mL; Cmax (clinical [1]; Cmax Mean, Dose Level 4, LD 1.00/CD 2.00 μg/kg/hr): 3.09 ng/mL; Cmax (clinical [1]; Cmax Median, Dose Level 1, LD 0.25/CD 0.2 μg/kg/hr): 0.266 ng/mL; Cmax (clinical [1]; Cmax Median, Dose Level 2, LD 0.50/CD 0.4 μg/kg/hr): 0.581 ng/mL; Cmax (clinical [1]; Cmax Median, Dose Level 3, LD 1.00/CD 0.7 μg/kg/hr): 0.966 ng/mL; Cmax (clinical [1]; Cmax Median, Dose Level 4, LD 1.00/CD 2.00 μg/kg/hr): 2.69 ng/mL; Cmax (clinical [1]; Cmax, Table 30 key summary (mean), Dose Level 1, LD 0.25/CD 0.2 μg/kg/hr): 0.48 ng/mL; Cmax (clinical [1]; Cmax, Table 30 key summary (mean), Dose Level 2, LD 0.50/CD 0.4 μg/kg/hr): 0.848 ng/mL; Cmax (clinical [1]; Cmax, Table 30 key summary (mean), Dose Level 3, LD 1.00/CD 0.7 μg/kg/hr): 3.39 ng/mL; Cmax (clinical [1]; Cmax, Table 30 key summary (mean), Dose Level 4, LD 1.00/CD 2.00 μg/kg/hr): 3.09 ng/mL; Tmax (clinical [1]; Tmax Mean, Dose Level 1, LD 0.25/CD 0.2 μg/kg/hr): 7.31 h; Tmax (clinical [1]; Tmax Mean, Dose Level 2, LD 0.50/CD 0.4 μg/kg/hr): 8.8 h; Tmax (clinical [1]; Tmax Mean, Dose Level 3, LD 1.00/CD 0.7 μg/kg/hr): 2.17 h; Tmax (clinical [1]; Tmax Mean, Dose Level 4, LD 1.00/CD 2.00 μg/kg/hr): 6.82 h; Tmax (clinical [1]; Tmax Median, Dose Level 1, LD 0.25/CD 0.2 μg/kg/hr): 6.04 h; Tmax (clinical [1]; Tmax Median, Dose Level 2, LD 0.50/CD 0.4 μg/kg/hr): 5.68 h; Tmax (clinical [1]; Tmax Median, Dose Level 3, LD 1.00/CD 0.7 μg/kg/hr): 0.367 h; Tmax (clinical [1]; Tmax Median, Dose Level 4, LD 1.00/CD 2.00 μg/kg/hr): 5.42 h; Vd (clinical [1]; Vd Mean, Dose Level 1, LD 0.25/CD 0.2 μg/kg/hr): 62 L; Vd (clinical [1]; Vd Mean, Dose Level 2, LD 0.50/CD 0.4 μg/kg/hr): 50.6 L; Vd (clinical [1]; Vd Mean, Dose Level 3, LD 1.00/CD 0.7 μg/kg/hr): 52.3 L; Vd (clinical [1]; Vd Mean, Dose Level 4, LD 1.00/CD 2.00 μg/kg/hr): 62.2 L; Vd (clinical [1]; Vd Median, Dose Level 2, LD 0.50/CD 0.4 μg/kg/hr): 40.7 L; Vd (clinical [1]; Vd Median, Dose Level 3, LD 1.00/CD 0.7 μg/kg/hr): 51.3 L; Vd (clinical [1]; Vd Median, Dose Level 4, LD 1.00/CD 2.00 μg/kg/hr): 57.8 L; Vd (clinical [1]; Vd, Table 30 key summary (mean), Dose Level 1, LD 0.25/CD 0.2 μg/kg/hr): 62 L; Vd (clinical [1]; Vd, Table 30 key summary (mean), Dose Level 2, LD 0.50/CD 0.4 μg/kg/hr): 50.6 L; Vd (clinical [1]; Vd, Table 30 key summary (mean), Dose Level 3, LD 1.00/CD 0.7 μg/kg/hr): 52.3 L; Vd (clinical [1]; Vd, Table 30 key summary (mean), Dose Level 4, LD 1.00/CD 2.00 μg/kg/hr): 62.2 L; Vd (clinical [1]; Vss Mean, Dose Level 1, LD 0.25/CD 0.2 μg/kg/hr): 56.8 L; Vd (clinical [1]; Vss Mean, Dose Level 3, LD 1.00/CD 0.7 μg/kg/hr): 32.8 L; Vd (clinical [1]; Vss Mean, Dose Level 4, LD 1.00/CD 2.00 μg/kg/hr): 43.7 L; Vd (clinical [1]; Vss Median, Dose Level 1, LD 0.25/CD 0.2 μg/kg/hr): 40.3 L; Vd (clinical [1]; Vss Median, Dose Level 2, LD 0.50/CD 0.4 μg/kg/hr): 30.6 L; Vd (clinical [1]; Vss Median, Dose Level 3, LD 1.00/CD 0.7 μg/kg/hr): 30.4 L; Vd (clinical [1]; Vss Median, Dose Level 4, LD 1.00/CD 2.00 μg/kg/hr): 33.1 L; clearance (clinical [1]; Weight-adjusted CL Mean, Dose Level 1, LD 0.25/CD 0.2 μg/kg/hr): 17.3 mL/min/kg; clearance (clinical [1]; Weight-adjusted CL Mean, Dose Level 2, LD 0.50/CD 0.4 μg/kg/hr): 15.7 mL/min/kg; clearance (clinical [1]; Weight-adjusted CL Mean, Dose Level 3, LD 1.00/CD 0.7 μg/kg/hr): 14 mL/min/kg; clearance (clinical [1]; Weight-adjusted CL Mean, Dose Level 4, LD 1.00/CD 2.00 μg/kg/hr): 14.2 mL/min/kg; clearance (clinical [1]; Weight-adjusted CL Median, Dose Level 1, LD 0.25/CD 0.2 μg/kg/hr): 19.9 mL/min/kg; clearance (clinical [1]; Weight-adjusted CL Median, Dose Level 2, LD 0.50/CD 0.4 μg/kg/hr): 14.7 mL/min/kg; clearance (clinical [1]; Weight-adjusted CL Median, Dose Level 3, LD 1.00/CD 0.7 μg/kg/hr): 14.7 mL/min/kg; clearance (clinical [1]; Weight-adjusted CL Median, Dose Level 4, LD 1.00/CD 2.00 μg/kg/hr): 13.4 mL/min/kg; clearance (clinical [1]; Weight-adjusted CL, Table 30 key summary (mean), Dose Level 1, LD 0.25/CD 0.2 μg/kg/hr): 16.7 mL/min/kg; clearance (clinical [1]; Weight-adjusted CL, Table 30 key summary (mean), Dose Level 2, LD 0.50/CD 0.4 μg/kg/hr): 15 mL/min/kg; clearance (clinical [1]; Weight-adjusted CL, Table 30 key summary (mean), Dose Level 3, LD 1.00/CD 0.7 μg/kg/hr): 13.3 mL/min/kg; clearance (clinical [1]; Weight-adjusted CL, Table 30 key summary (mean), Dose Level 4, LD 1.00/CD 2.00 μg/kg/hr): 13.3 mL/min/kg; Vd (clinical [1]; Weight-adjusted Vd Mean, Dose Level 1, LD 0.25/CD 0.2 μg/kg/hr): 2.17 L/kg; Vd (clinical [1]; Weight-adjusted Vd Mean, Dose Level 2, LD 0.50/CD 0.4 μg/kg/hr): 2.31 L/kg; Vd (clinical [1]; Weight-adjusted Vd Mean, Dose Level 3, LD 1.00/CD 0.7 μg/kg/hr): 2.44 L/kg; Vd (clinical [1]; Weight-adjusted Vd Mean, Dose Level 4, LD 1.00/CD 2.00 μg/kg/hr): 2.48 L/kg; Vd (clinical [1]; Weight-adjusted Vd Median, Dose Level 1, LD 0.25/CD 0.2 μg/kg/hr): 2.43 L/kg; Vd (clinical [1]; Weight-adjusted Vd Median, Dose Level 2, LD 0.50/CD 0.4 μg/kg/hr): 2.49 L/kg; Vd (clinical [1]; Weight-adjusted Vd Median, Dose Level 3, LD 1.00/CD 0.7 μg/kg/hr): 2.19 L/kg; Vd (clinical [1]; Weight-adjusted Vd Median, Dose Level 4, LD 1.00/CD 2.00 μg/kg/hr): 2.15 L/kg; Vd (clinical [1]; Weight-adjusted Vd, Table 30 key summary (mean), Dose Level 1, LD 0.25/CD 0.2 μg/kg/hr): 2.2 L/kg; Vd (clinical [1]; Weight-adjusted Vd, Table 30 key summary (mean), Dose Level 2, LD 0.50/CD 0.4 μg/kg/hr): 2.3 L/kg; Vd (clinical [1]; Weight-adjusted Vd, Table 30 key summary (mean), Dose Level 3, LD 1.00/CD 0.7 μg/kg/hr): 2.4 L/kg; Vd (clinical [1]; Weight-adjusted Vd, Table 30 key summary (mean), Dose Level 4, LD 1.00/CD 2.00 μg/kg/hr): 2.5 L/kg; half-life (clinical [1]; t1/2, Table 30 key summary (mean), Dose Level 1, LD 0.25/CD 0.2 μg/kg/hr): 1.5 h; half-life (clinical [1]; t1/2, Table 30 key summary (mean), Dose Level 2, LD 0.50/CD 0.4 μg/kg/hr): 1.7 h; half-life (clinical [1]; t1/2, Table 30 key summary (mean), Dose Level 3, LD 1.00/CD 0.7 μg/kg/hr): 2 h; half-life (clinical [1]; t1/2, Table 30 key summary (mean), Dose Level 4, LD 1.00/CD 2.00 μg/kg/hr): 2.1 h; half-life (clinical [1]; t1/2 Mean, Dose Level 1, LD 0.25/CD 0.2 μg/kg/hr): 1.55 h; half-life (clinical [1]; t1/2 Mean, Dose Level 2, LD 0.50/CD 0.4 μg/kg/hr): 1.74 h; half-life (clinical [1]; t1/2 Mean, Dose Level 3, LD 1.00/CD 0.7 μg/kg/hr): 2.04 h; half-life (clinical [1]; t1/2 Mean, Dose Level 4, LD 1.00/CD 2.00 μg/kg/hr): 2.14 h; half-life (clinical [1]; t1/2 Median, Dose Level 1, LD 0.25/CD 0.2 μg/kg/hr): 1.56 h; half-life (clinical [1]; t1/2 Median, Dose Level 2, LD 0.50/CD 0.4 μg/kg/hr): 1.69 h; half-life (clinical [1]; t1/2 Median, Dose Level 3, LD 1.00/CD 0.7 μg/kg/hr): 1.79 h; half-life (clinical [1]; t1/2 Median, Dose Level 4, LD 1.00/CD 2.00 μg/kg/hr): 2.12 h; clearance (clinical [2]; Cl Mean): 171 mL/min; clearance (clinical [2]; Cl Median): 162 mL/min; Vd (clinical [2]; Vd Mean): 30.5 L; Vd (clinical [2]; Vd Median): 29.1 L; half-life (clinical [2]; apparent (mean) t1/2): 2.33 h; half-life (clinical [2]; t1/2, Mean): 2.33 h; half-life (clinical [2]; t1/2 Median): 1.87 h; clearance (clinical [3]; 0.05 ug/kg, CLw (clearance)): 6.83 mL/min/kg; AUC(0-t) (clinical [3]; AUC (0-Last)): 0.708 ng·h/mL; clearance (clinical [3]; CLw (weight adjusted clearance)): 4.83 mL/min/kg; Vd (clinical [3]; Vss): 6.25 L; half-life (clinical [3]; elimination t1/2): 4.77 h; half-life (clinical [3]; t1/2): 8.32 h
